Patent US20050209256A1, “Novel beta-turn mimetics as calcitonin gene related peptide receptor antagonists” (priority 2004, published 2005)

What follows are molecules tested against T1, human CGRP receptor (Homo sapiens, UniProt O60894+Q16602) (assay: Radioligand binding assay, [125I]-CGRP competition on SK-N-MC cell homogenates). Details: Binding data, [125I]-CGRP 40 pM, room temperature.
T1 construct: SK-N-MC cells that endogenously express the human CGRP receptor; endogenous in cells; host or cells: SK-N-MC cells (membrane homogenates)
How it was run: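 SK-N-MC cell membrane homogenates (3.5 μg protein/well) preincubated 1 h at room temperature with compounds in 50 mM Tris-Cl pH 7.5, 5 mM MgCl2, 0.5% BSA, then 1 h with 40 pM [125I]-CGRP. Bound ligand separated by filtration over PEI-soaked glass fibre filters; non-specific binding defined with 100 nM CGRP.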

Structure (SMILES)	IC50 [nM]
O=C1COc2cc(OC(=O)N3CCC(=O)N4[C@@H](C5CCCCC5)C(=O)N(CCc5ccccc5)C[C@H]34)ccc21 [Compound 150, (6S,9aS)-6-Cyclohexyl-4,7-dioxo-8-phenethyl-hexahydro-pyrazino[1,2-a]pyrimidine-1-carboxylic acid 3-oxo-2,3-dihydro-benzofuran-6-yl ester]	1730
CC(=O)c1ccc(NC(=O)N2CCC(=O)N3[C@@H](c4cccc(F)c4)C(=O)N(CCc4cccc(F)c4)C[C@H]23)cc1 [Compound 152, (6S,9aS)-6-(3-Fluoro-phenyl)-8-[2-(3-fluoro-phenyl)-ethyl]-4,7-dioxo-hexahydro-pyrazino[1,2-a]pyrimidine-1-carboxylic acid (4-acetyl-phenyl)-amide]	159

Further molecules by falling IC50, results first:

IC50 [nM]	Structure (SMILES)
363	CC(=O)c1ccc(NC(=O)N2CCC(=O)N3[C@@H](c4cccc(F)c4F)C(=O)N(CCc4cccc(F)c4)C[C@H]23)cc1 [Compound 154, (6S,9aS)-6-(2,3-Difluoro-phenyl)-8-[2-(3-fluoro-phenyl)-ethyl]-4,7-dioxo-hexahydro-pyrazino[1,2-a]pyrimidine-1-carboxylic acid (4-acetyl-phenyl)-amide]
320	CC(=O)c1ccc(NC(=O)N2CCC(=O)N3[C@@H](c4ccc(F)cc4F)C(=O)N(CCc4cccc(F)c4)C[C@H]23)cc1 [Compound 153, (6S,9aS)-6-(2,4-Difluoro-phenyl)-8-[2-(3-fluoro-phenyl)-ethyl]-4,7-dioxo-hexahydro-pyrazino[1,2-a]pyrimidine-1-carboxylic acid (4-acetyl-phenyl)-amide]
39	CC(=O)c1ccc(NC(=O)N2CCC(=O)N3[C@@H](c4ccc(F)c(F)c4)C(=O)N(CCc4cccc(F)c4)C[C@H]23)cc1 [Compound 151, 6-(3,4-Difluoro-phenyl)-8-[2-(3-fluoro-phenyl)-ethyl]-4,7-dioxo-hexahydro-pyrazino [1,2-a]pyrimidine-1-carboxylic acid (4-acetyl-phenyl)-amide]
